Source: ChEMBL document CHEMBL5360534, “Synthetic α-glucosidase inhibitors as promising anti-diabetic agents: Recent developments and future challenges” (Eur J Med Chem, 2023)

Columns and labels:
Alpha-glucosidase = Alpha-glucosidase (Saccharomyces cerevisiae S288c, UniProt P53341+P38158+P07265); test: Inhibition of Saccharomyces cerevisiae alpha-glucosidase using p-nitrophenyl-alpha-D-glucopyranoside as substrate incubated for 15 mins by UV-visible spectrophotometric analysis; type: protein assay
[1] = Inhibition of alpha-glucosidase (unknown origin) using p-NPG as substrate assessed as inhibition constant preincubated with compound followed by substrate addition and measured by absorbance based analysis; parameters: species or system Homo sapiens

IC50 (Alpha-glucosidase) [nM] | Ki [1] [nM] | Structure (SMILES)
32000 |  | OC[C@H]1O[C@H](OCc2cn(C[C@H]3O[C@@H]4O[C@H]5[C@H](O)[C@@H](O)[C@@H](O[C@H]6[C@H](O)[C@@H](O)[C@@H](O[C@H]7[C@H](O)[C@@H](O)[C@@H](O[C@H]8[C@H](O)[C@@H](O)[C@@H](O[C@H]9[C@H](O)[C@@H](O)[C@@H](O[C@H]%10[C@H](O)[C@@H](O)[C@@H](O[C@H]%11[C@H](O)[C@@H](O)[C@@H](O[C@H]3[C@H](O)[C@H]4O)O[C@@H]%11Cn3cc(CO[C@H]4O[C@H](CO)[C@@H](O)[C@H](O)[C@@H]4O)nn3)O[C@@H]%10Cn3cc(CO[C@H]4O[C@H](CO)[C@@H](O)[C@H](O)[C@@H]4O)nn3)O[C@@H]9Cn3cc(CO[C@H]4O[C@H](CO)[C@@H](O)[C@H](O)[C@@H]4O)nn3)O[C@@H]8Cn3cc(CO[C@H]4O[C@H](CO)[C@@H](O)[C@H](O)[C@@H]4O)nn3)O[C@@H]7Cn3cc(CO[C@H]4O[C@H](CO)[C@@H](O)[C@H](O)[C@@H]4O)nn3)O[C@@H]6Cn3cc(CO[C@H]4O[C@H](CO)[C@@H](O)[C@H](O)[C@@H]4O)nn3)O[C@@H]5Cn3cc(CO[C@H]4O[C@H](CO)[C@@H](O)[C@H](O)[C@@H]4O)nn3)nn2)[C@@H](O)[C@@H](O)[C@@H]1O
 | 3.9 | COc1c(C(=O)/C=C/c2ccc(Br)cc2)c(OC)c(C(=O)/C=C/c2ccc(Br)cc2)c(OC)c1C(=O)/C=C/c1ccc(Br)cc1
